In patent US20250296938A1, “Compounds that Interact with the Ras Superfamily for the Treatment of Cancers, Inflammatory Diseases, Rasopathies, and Fibrotic Disease” (SHY Therapeutics, LLC, priority 2018, published 2025):

Tests used:
AKT phosphorylation = experiment: Western AKT cell-based phosphorylation assay, PANC-1; settings: Homo sapiens
Protocol: Human tumor-derived pancreatic cancer cell line Panc-1 was purchased from American Type Culture Collection and grown in complete DMEM-High Glucose supplemented with penicillin (100 U/mL), streptomycin (100 μg/mL), and 10% heat-inactivated FBS at 37° C. in a humidified incubator with 5% CO2.
(§1) Method: Cells were plated at 350000 cells/well density in a 12-well plate, allowed 3 hours to adhere to the plate, then starved in the appropriate medium in the presence of 0.5% FBS overnight. The small molecules to be tested were added to the cells in the final concentration of 10 μM in the presence of 0.3% DMSO for 6 hours incubation at 37° C. Next, cells were stimulated with 1.5 ng/ml EGF for 15 minutes then cells were lysed with lysis buffer containing 1% Triton X-100, EDTA, and Halt™ Protease & Phosphatase Inhibitor Cocktail (Thermo Scientific). Protein concentration was assessed by BCA protein assay (Thermo Scientific). Phosphorylation level of Akt was determined by western blot.
(§2) Western blot protocol: Equal amounts of protein (15-50 μg) were separated by SDS-PAGE and transferred to nitrocellulose membranes (Invitrogen by Thermo Fisher Scientific). The membrane was stained with Ponceau S Stain (Boston BioProducts) to verify uniform protein loading. Membranes were blocked with 10% milk and phosphorylation levels of Akt were assessed by incubating overnight at 4° C. with anti-phospho-Akt (Ser473) antibody (Cell Signaling) followed by HRP-conjugated secondary antibody (Jackson Immunoresearch, West Grove, PA). Bands were incubated in Amersham ECL Prime Western Blotting Detection Reagent (GE Healthcare) and visualized using the ChemiDoc MP imaging system (Bio-Rad).

MAPK phosphorylation = experiment: MAPK cell-based phosphorylation assay (ELISA or Western), PANC-1; settings: Homo sapiens, 10 μM
Protocol: Cell lines: Tumor-derived pancreatic cancer cell line PANC-1 was purchased from ATCC and were and grown in DMEM-High Glucose supplemented with penicillin (100 U/mL), streptomycin (100 μg/mL), and 10% heat-inactivated FBS at 37° C. in a humidified incubator with 5% CO2.
Method: Cells were plated at 7500 cells/well density in a 96-well plate, allowed 3 hours to adhere to the plate, then starved in DMEM plus 0.5% FBS overnight. The small molecules to be tested were added to the cells in the final concentration of 10 μM in the presence of 0.3% DMSO for 6 hours incubation at 37° C. For IC50 value determination, serial dilutions of compounds were added to cells under the same conditions. Next, cells were stimulated with 1.5 ng/mL EGF for 15 minutes followed by cell fixation with 4% formaldehyde in PBS at room temperature for 20 minutes. Cell-direct ELISA determined phosphorylation level of MAPK.
Cell-direct ELISA: For each well, cells were permeabilized with 0.1% PBS-Triton X-100, quenched with 0.06% H2O2 in 0.1% PBS-Triton X-100, and probed with anti-phospho-MAPK antibodies (R&D Systems) followed by HRP-conjugated secondary antibody (Jackson Immunoresearch, West Grove, PA). Next, a 50 μM solution of the fluorescent substrate AmpliFlu Red (Sigma) was added and incubated at RT for 20 minutes. At the end of the incubation time, phosphorylation level of MAPK was determined by measuring fluorescence at 595 nm using SpectraMax M3 plate reader (Molecular Devices).
Cell lines: Human NSCLC cells NCI-H1975 and NCI-H1299, and tumor-derived pancreatic cancer cell lines Panc-1, MIA-PaCa-2, and BxPC3, were all purchased from American Type Culture Collection and grown in complete RPMI medium (BxPC3, NCI-H1975 and NCI-H1299) or DMEM-High Glucose (Panc1 and MIA-PaCa-2), supplemented with penicillin (100 U/mL), streptomycin (100 μg/mL), and 10% heat-inactivated FBS at 37° C. in a humidified incubator with 5% CO2.
as §1, with “C. For IC50 value determination, serial dilutions of compounds were added to cells under the same conditions.” for “C.”, “MAPK” for “Akt”
as §2, with “MAPK” for “Akt”, “anti-phospho-p44/42 (Thr202/Tyr204)” for “anti-phospho-Akt (Ser473)”

[1] = 6 hours, EGF stimulation, PANC-1

COCCn1cc(-c2sc3nc(-c4nccn4C)nc(N4CCC(OC)C4)c3c2-c2ccccc2)cn1 (stereo not shown) [drawing 433]
inhibition at 10 µM (AKT phosphorylation; [1]): 0%
inhibition at 10 µM (MAPK phosphorylation; [1]): 51 to 75%

COC1CCN(c2nc(-c3nccn3C)nc3sc(-c4ccncc4C)c(-c4ccccc4)c23)C1 (stereo not shown) [drawing 434]
inhibition at 10 µM (AKT phosphorylation; [1]): 0%
inhibition at 10 µM (MAPK phosphorylation; [1]): 0%

COC1CCN(c2nc(-c3nccn3C)nc3sc(-c4cnn(C)c4)c(-c4ccccc4)c23)C1 (stereo not shown) [drawing 435]
inhibition at 10 µM (AKT phosphorylation; [1]): 0%
inhibition at 10 µM (MAPK phosphorylation; [1]): 1 to 25%

COC1CCN(c2nc(-c3nccn3C)nc3sc(-c4ccc(CO)cc4)c(-c4ccccc4)c23)C1 (stereo not shown) [drawing 436]
inhibition at 10 µM (AKT phosphorylation; [1]): 0%
inhibition at 10 µM (MAPK phosphorylation; [1]): 51 to 75%

COC1CCN(c2nc(-c3nccn3C)nc3sc(-c4ccc(N)nc4C)c(-c4ccccc4)c23)C1 (stereo not shown) [drawing 437]
inhibition at 10 µM (AKT phosphorylation; [1]): 0%
inhibition at 10 µM (MAPK phosphorylation; [1]): 26 to 50%

COC1CCN(c2nc(-c3nccn3C)nc3sc(-c4ccccc4CO)c(-c4ccccc4)c23)C1 (stereo not shown) [drawing 438]
inhibition at 10 µM (AKT phosphorylation; [1]): 0%
inhibition at 10 µM (MAPK phosphorylation; [1]): 0%

COc1nscc1-c1sc2nc(-c3nccn3C)nc(N3CCC(OC)C3)c2c1-c1ccccc1 (stereo not shown) [drawing 439]
inhibition at 10 µM (AKT phosphorylation; [1]): 0%
inhibition at 10 µM (MAPK phosphorylation; [1]): 51 to 75%

COC1CCN(c2nc(-c3nccn3C)nc3sc(-c4ccnc(N(C)C)c4)c(-c4ccccc4)c23)C1 (stereo not shown) [drawing 440]
inhibition at 10 µM (AKT phosphorylation; [1]): 0%
inhibition at 10 µM (MAPK phosphorylation; [1]): 76 to 100%

COC1CCN(c2nc(-c3nccn3C)nc3sc(Br)c(-c4ccccc4)c23)C1 (stereo not shown) [drawing 441]
inhibition at 10 µM (AKT phosphorylation; [1]): 0%
inhibition at 10 µM (MAPK phosphorylation; [1]): 26 to 50%

COc1ccc(-c2c(-c3cccc(OC)c3F)sc3nc(-c4nccn4C)nc(N4CCC(OC)C4)c23)cc1 (stereo not shown) [drawing 442]
inhibition at 10 µM (AKT phosphorylation; [1]): 0%
inhibition at 10 µM (MAPK phosphorylation; [1]): 0%

COCC1CN(c2nc(-c3nccn3C)nc3sc(-c4cccc(OC)c4F)c(-c4ccc(OC)cc4)c23)C1 [drawing 443]
inhibition at 10 µM (AKT phosphorylation; [1]): 0%
inhibition at 10 µM (MAPK phosphorylation; [1]): 76 to 100%

COc1cccc(-c2sc3nc(-c4nccn4C)nc(N4CCC(OC)C4)c3c2-c2ccccc2)c1F (stereo not shown) [drawing 444]
inhibition at 10 µM (AKT phosphorylation; [1]): 76 to 100%
inhibition at 10 µM (MAPK phosphorylation; [1]): 76 to 100%

COc1c(O)nc(-c2ccccn2)nc1Oc1cnn(C)c1 [drawing 445]
inhibition at 10 µM (AKT phosphorylation; [1]): 0%
inhibition at 10 µM (MAPK phosphorylation; [1]): 1 to 25%

COc1c(O)nc(-c2ccccn2)nc1Oc1ccc2ncccc2c1 [drawing 446]
inhibition at 10 µM (AKT phosphorylation; [1]): 0%
inhibition at 10 µM (MAPK phosphorylation; [1]): 0%

COc1c(O)nc(-c2ccccn2)nc1Oc1cccnc1 [drawing 447]
inhibition at 10 µM (AKT phosphorylation; [1]): 0%
inhibition at 10 µM (MAPK phosphorylation; [1]): 0%

COc1cccc(Oc2nc(-c3ccccn3)nc(O)c2OC)c1 [drawing 448]
inhibition at 10 µM (AKT phosphorylation; [1]): 0%
inhibition at 10 µM (MAPK phosphorylation; [1]): 0%

COc1ccc(Oc2nc(-c3ccccn3)nc(O)c2OC)cc1 [drawing 449]
inhibition at 10 µM (AKT phosphorylation; [1]): 0%
inhibition at 10 µM (MAPK phosphorylation; [1]): 0%

COCCc1ccc(Oc2nc(-c3ccccn3)nc(O)c2OC)cc1 [drawing 450]
inhibition at 10 µM (AKT phosphorylation; [1]): 0%
inhibition at 10 µM (MAPK phosphorylation; [1]): 0%

COc1c(O)nc(-c2ccccn2)nc1Oc1ccccc1 [drawing 451]
inhibition at 10 µM (AKT phosphorylation; [1]): 0%
inhibition at 10 µM (MAPK phosphorylation; [1]): 0%

O=C(c1nc(-c2ccccn2)nc(O)c1O)N1CCc2ccccc2C1 [drawing 452]
inhibition at 10 µM (AKT phosphorylation; [1]): 0%
inhibition at 10 µM (MAPK phosphorylation; [1]): 0%

O=C(c1nc(-c2ccccn2)nc(O)c1O)N1CCOCC1 [drawing 453]
inhibition at 10 µM (AKT phosphorylation; [1]): 0%
inhibition at 10 µM (MAPK phosphorylation; [1]): 0%

CN(Cc1ccccc1)C(=O)c1nc(-c2ccccn2)nc(O)c1O [drawing 454]
inhibition at 10 µM (AKT phosphorylation; [1]): 0%
inhibition at 10 µM (MAPK phosphorylation; [1]): 0%

O=C(NCc1ccccc1)c1nc(-c2ccccn2)nc(O)c1O [drawing 455]
inhibition at 10 µM (AKT phosphorylation; [1]): 0%
inhibition at 10 µM (MAPK phosphorylation; [1]): 1 to 25%

O=C(c1nc(-c2ccccn2)nc(O)c1O)N1CCCC1 [drawing 456]
inhibition at 10 µM (AKT phosphorylation; [1]): 0%
inhibition at 10 µM (MAPK phosphorylation; [1]): 0%

O=C(NC1CCCC1)c1nc(-c2ccccn2)nc(O)c1O [drawing 457]
inhibition at 10 µM (AKT phosphorylation; [1]): 0%
inhibition at 10 µM (MAPK phosphorylation; [1]): 0%

CC(C)CN(C)C(=O)c1nc(-c2ccccn2)nc(O)c1O [drawing 458]
inhibition at 10 µM (AKT phosphorylation; [1]): 0%
inhibition at 10 µM (MAPK phosphorylation; [1]): 0%

CC(C)CNC(=O)c1nc(-c2ccccn2)nc(O)c1O [drawing 459]
inhibition at 10 µM (AKT phosphorylation; [1]): 0%
inhibition at 10 µM (MAPK phosphorylation; [1]): 0%

COCCN(C)C(=O)c1nc(-c2ccccn2)nc(O)c1O [drawing 460]
inhibition at 10 µM (AKT phosphorylation; [1]): 0%
inhibition at 10 µM (MAPK phosphorylation; [1]): 0%

O=C(NC1CCC1)c1nc(-c2ccccn2)nc(O)c1O [drawing 461]
inhibition at 10 µM (AKT phosphorylation; [1]): 0%
inhibition at 10 µM (MAPK phosphorylation; [1]): 0%

CC(C)NC(=O)c1nc(-c2nccn2C)nc(O)c1O [drawing 462]
inhibition at 10 µM (AKT phosphorylation; [1]): 0%
inhibition at 10 µM (MAPK phosphorylation; [1]): 0%

CCN(CC)C(=O)c1nc(-c2nccn2C)nc(O)c1O [drawing 463]
inhibition at 10 µM (AKT phosphorylation; [1]): 0%
inhibition at 10 µM (MAPK phosphorylation; [1]): 0%

Cn1ccnc1-c1nc(O)c(O)c(C(=O)N2CCCC2)n1 [drawing 464]
inhibition at 10 µM (AKT phosphorylation; [1]): 0%
inhibition at 10 µM (MAPK phosphorylation; [1]): 0%

Cn1ccnc1-c1nc(O)c(O)c(C(=O)NC2CCCC2)n1 [drawing 465]
inhibition at 10 µM (AKT phosphorylation; [1]): 0%
inhibition at 10 µM (MAPK phosphorylation; [1]): 0%

Cn1ccnc1-c1nc(O)c(O)c(C(=O)N2CCCCC2)n1 [drawing 466]
inhibition at 10 µM (AKT phosphorylation; [1]): 0%
inhibition at 10 µM (MAPK phosphorylation; [1]): 0%

Cn1ccnc1-c1nc(O)c(O)c(C(=O)NC2CCC2)n1 [drawing 467]
inhibition at 10 µM (AKT phosphorylation; [1]): 0%
inhibition at 10 µM (MAPK phosphorylation; [1]): 0%

COC(=O)c1nc(-c2nccn2C)nc(O)c1O [drawing 468]
inhibition at 10 µM (AKT phosphorylation; [1]): 0%
inhibition at 10 µM (MAPK phosphorylation; [1]): 0%

COc1nc(-c2ccccn2)nc(Nc2cnn(C)c2)c1OC [drawing 469]
inhibition at 10 µM (AKT phosphorylation; [1]): 0%
inhibition at 10 µM (MAPK phosphorylation; [1]): 0%

COCCn1cc(Nc2nc(-c3ccccn3)nc(OC)c2OC)cn1 [drawing 470]
inhibition at 10 µM (AKT phosphorylation; [1]): 0%
inhibition at 10 µM (MAPK phosphorylation; [1]): 0%

COC1CCN(c2nc(-c3nccn3C)nn3cc(-c4ccccc4)c(-c4ccccc4)c23)C1 (stereo not shown) [drawing 471]
inhibition at 10 µM (AKT phosphorylation; [1]): 0%
inhibition at 10 µM (MAPK phosphorylation; [1]): 51 to 75%

COc1c(O)nc(-c2ccccn2)nc1Oc1ccc(C(=O)N(C)C)cc1 [drawing 479]
inhibition at 10 µM (AKT phosphorylation; PANC-1 (Table 4C)): 0%
inhibition at 10 µM (MAPK phosphorylation; PANC-1 (Table 4C)): 0%

COc1c(O)nc(-c2ccccn2)nc1Nc1ccccc1 [drawing 480]
inhibition at 10 µM (AKT phosphorylation; PANC-1 (Table 4C)): 0%
inhibition at 10 µM (MAPK phosphorylation; PANC-1 (Table 4C)): 0%

CCn1cc(Nc2nc(-c3ccccn3)nc(O)c2OC)cn1 [drawing 481]
inhibition at 10 µM (AKT phosphorylation; PANC-1 (Table 4C)): 0%
inhibition at 10 µM (MAPK phosphorylation; PANC-1 (Table 4C)): 0%

CCOc1cccc(Nc2nc(-c3ccccn3)nc(O)c2OC)c1 [drawing 482]
inhibition at 10 µM (AKT phosphorylation; PANC-1 (Table 4C)): 0%
inhibition at 10 µM (MAPK phosphorylation; PANC-1 (Table 4C)): 0%

COc1cccc(-c2sc3nc(-c4nccn4C)nc(NC4CCC(OC)C4)c3c2-c2ccccc2)c1F (stereo not shown) [drawing 483]
inhibition at 10 µM (AKT phosphorylation; PANC-1 (Table 4C)): 76 to 100%
inhibition at 10 µM (MAPK phosphorylation; PANC-1 (Table 4C)): 76 to 100%
